Measurements as given in PubChem BioAssay (NCI).
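In this assay, cells in 96-well plates receive the compound at five concentrations for 48 hours. Endpoints are linearly interpolated between the surrounding concentrations. TGI: total growth inhibition.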

Legend:
Assay in all cases: growth of human tumour cells (NCI), 48 h
[1] = tested on: MDA-MB-231 breast
[2] = tested on: HS 578T breast
[3] = tested on: MOLT-4 leukemia
[4] = tested on: SR leukemia
[5] = tested on: OVCAR-5 ovarian
[6] = tested on: ACHN renal
[7] = tested on: SF-295 CNS
[8] = tested on: SNB-19 CNS
[9] = tested on: UACC-257 melanoma
[10] = tested on: UACC-62 melanoma
[11] = tested on: OVCAR-8 ovarian
[12] = tested on: HT29 colon
[13] = tested on: K-562 leukemia
[14] = tested on: HL-60(TB) leukemia
[15] = tested on: U251 CNS
[16] = tested on: MDA-N
[17] = tested on: CCRF-CEM leukemia
[18] = tested on: RPMI-8226 leukemia
[19] = tested on: SK-MEL-5 melanoma
[20] = tested on: MDA-MB-435
[21] = tested on: HCT-15 colon
[22] = tested on: HCC-2998 colon
[23] = tested on: SF-539 CNS
[24] = tested on: IGROV1 ovarian
[25] = tested on: KM12 colon
[26] = tested on: SNB-75 CNS
[27] = tested on: SK-MEL-2 melanoma
[28] = tested on: SK-OV-3 ovarian
[29] = tested on: SW-620 colon
[30] = tested on: A549 NSCLC
[31] = tested on: NCI-H460 lung
[32] = tested on: NCI/ADR-RES ovarian
[33] = tested on: OVCAR-4 ovarian
[34] = tested on: 786-0 renal
[35] = tested on: DU-145 prostate
[36] = tested on: TK-10 renal
[37] = tested on: HCT-116 colon
[38] = tested on: M14 melanoma
[39] = tested on: UO-31 renal
[40] = tested on: HOP-62 NSCLC
[41] = tested on: EKVX NSCLC
[42] = tested on: T-47D breast
[43] = tested on: SK-MEL-28 melanoma
[44] = tested on: RXF 393 renal
[45] = tested on: COLO 205 colon
[46] = tested on: SN12C renal
[47] = tested on: NCI-H226 lung
[48] = tested on: PC-3 prostate
[49] = tested on: CAKI-1 renal
[50] = tested on: MCF7 breast
[51] = tested on: SF-268 CNS
[52] = tested on: HOP-92 NSCLC
[53] = tested on: A498 renal
[54] = tested on: NCI-H522 lung
[55] = tested on: LOX IMVI melanoma
[56] = tested on: MALME-3M melanoma
[57] = tested on: NCI-H23 lung
[58] = tested on: OVCAR-3 ovarian

Measured: TGI

BrCCCCCOc1ccc(-c2c3ccccc3c(-c3ccc(OCCCCCBr)cc3)c3ccccc23)cc1
not listed: [52] | [53] | [54] | [55] | [56] | [57] | [58]
> 100 µM: all other assays above

O=S(=O)(c1ccccc1)n1c2ccc(Br)cc2c2nc3ccccc3nc21
not listed: [14] | [23] | [28] | [41] | [50]
> 100 µM: all other assays above
